Tests used:
[1] = system: human leukemic cell line HL-60; assay: Cell differentiation in HL-60 assay (NBT reduction); format: cell-based; details: for concentration of optimum differentiating effect / NBT-reduction inducing capacity relative to the known 1α,25-DHCC: HL-60 cells; for concentration of optimum differentiating effect / induction of differentiation and maturation of HL-60 cells: NBT reduction; for induction of differentiation and maturation of HL-60 cells: 10^-12 to 10^-6 M; for NBT-reduction inducing capacity relative to the known 1α,25-DHCC: FIGS. 2 and 3, potency ratio versus 1α,25-DHCC
Experimental: Vitamin D compounds according to the invention are dissolved in ethanol in concentrations ranging from 10^-12 to 10^-6 M and tested for their capacity to induce cell differentiation in a HL-60 assay. In this assay, biochemical examination of the human leukemic cell line HL-60 is done, in order to establish whether cell differentiation has taken place.
Differentiation is expressed as the maturation parameter nitroblue tetrazolium (NBT) reduction. After culturing with the known 1α,25-DHCC or with vitamin D compounds of the invention, the percentage of cells containing black formazan deposits is determined. An increase in the percentage of NBT reducing cells indicates an increase in cell differentiation.

[2] = biological target: T1, human vitamin D binding protein (DBP) (Homo sapiens, UniProt P02774); assay: Affinity to vitamin D binding protein (competition with 3H-1α,25-DHCC); details: DBP purified from total human serum; 10^-11 to 2.5×10^-6 M; compared to 1α,25-DHCC; FIG. 1
T1 construct: pooled Gc allotypes not specified
T1 sequence (P02774 17-474): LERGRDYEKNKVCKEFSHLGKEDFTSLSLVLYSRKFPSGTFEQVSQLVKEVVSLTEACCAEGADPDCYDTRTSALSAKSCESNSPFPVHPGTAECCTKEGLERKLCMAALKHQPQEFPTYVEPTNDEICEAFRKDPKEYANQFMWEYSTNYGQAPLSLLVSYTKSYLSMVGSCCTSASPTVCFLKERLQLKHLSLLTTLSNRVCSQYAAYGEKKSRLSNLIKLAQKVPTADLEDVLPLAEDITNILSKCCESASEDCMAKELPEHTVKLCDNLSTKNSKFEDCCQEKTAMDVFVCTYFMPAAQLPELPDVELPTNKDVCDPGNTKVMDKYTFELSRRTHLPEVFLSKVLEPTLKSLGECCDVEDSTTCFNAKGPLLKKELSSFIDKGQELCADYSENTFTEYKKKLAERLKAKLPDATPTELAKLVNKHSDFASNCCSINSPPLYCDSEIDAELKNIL
From the text: Affinity to vitamin D binding protein.
Vitamin D binding protein (DBP) is the specific carrier for vitamin D and its metabolites in blood. The biological activity of vitamin D compounds depends on their binding to DBP, because strong binding to DBP will reduce the intracellular access to the VDR. Binding to the DBP may also influence the half-life of the vitamin D derivatives in circulation. Weak binders are rapidly metabolized, which is a favourable aspect in topical application.
In the assay, DBP is incubated with ^3 H-1α,25-DHCC and 1α,25-DHCC or with several vitamin D compounds according to the invention. To this purpose, the vitamin compounds are dissolved in ethanol in concentrations ranging from 10^-11 to 2.5×10^-6 M. The percentage bound/unbound ^3 H-1α,25-DHCC is then calculated. DBP is purified from total human serum. The results are shown in the appended FIG. 1. […] [^3 H]1α,25(OH)2 D3 =^3 H-1α,25-DHCC; in the Figure .cndot.=1α,25-DHCC (known compound); .quadrature.=compound 21; Δ=compound 28; o=compound 32 and .diamond.=compound 36.

[3] = biological target: T2, calf thymus intracellular vitamin D receptor (VDR) (Bos taurus, UniProt Q28037); assay: Affinity to intracellular vitamin D receptor (displacement of 3H-1α,25-DHCC); format: binding; details: 10^-13 to 10^-7 M, compared with 1α,25-dihydroxycholecalciferol
T2 sequence (Q28037 1-426): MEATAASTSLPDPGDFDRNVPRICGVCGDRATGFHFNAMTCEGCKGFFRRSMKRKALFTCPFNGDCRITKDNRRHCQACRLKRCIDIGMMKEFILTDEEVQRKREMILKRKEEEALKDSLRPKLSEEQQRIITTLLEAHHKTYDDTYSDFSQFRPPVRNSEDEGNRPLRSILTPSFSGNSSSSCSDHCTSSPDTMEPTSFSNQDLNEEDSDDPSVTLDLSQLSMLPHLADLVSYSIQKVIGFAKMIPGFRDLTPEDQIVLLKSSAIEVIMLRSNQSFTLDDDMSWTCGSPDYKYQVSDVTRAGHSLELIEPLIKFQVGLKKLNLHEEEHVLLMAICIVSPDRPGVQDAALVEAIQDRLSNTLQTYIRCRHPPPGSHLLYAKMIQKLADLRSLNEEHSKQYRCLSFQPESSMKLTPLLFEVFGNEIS
From the text: Affinity to intracellular vitamin D receptor.
In this assay, ^3 H-1α,25-dihydroxycholecalciferol (^3 H-1α,25-DHCC), which is specifically bound to the VDR, is replaced by the tested compounds. […] A high VDR-affinity is indicative for a biologically active substance. The tested compounds 21 and 28 have moderate VDR-affinities, whereas tested compound 36 has a weak VDR-affinity.

| Compound | concentration of optimum differentiating effect [1] | induction of differentiation and maturation of HL-60 cells [1] | binding to the DBP [2] | VDR-affinity [3] | NBT-reduction inducing capacity relative to the known 1α,25-DHCC [1] |
| --- | --- | --- | --- | --- | --- |
| C=C1/C(=C\C=C2/CCC[C@]3(C)[C@@H]([C@H](C)CCCC(C)(C)O)CC[C@@H]23)C[C@@H](O)C[C@@H]1O [1α,25-DHCC, 1α,25-dihydroxycholecalciferol, reference compound] | 10^-8 to 10^-7 M | induce differentiation and maturation | – | – | – |
| C=C1/C(=C\C=C2/CCC[C@]3(C)/C(=C\CCCC(C)(C)O)CC[C@@H]23)C[C@@H](O)C[C@@H]1O [compound 21] | 10^-8 to 10^-7 M | induce differentiation and maturation | rather weakly | moderate | 3-5 times |
| C=C1/C(=C\C=C2/CCC[C@]3(C)/C(=C/CCCC(C)(C)O)CC[C@@H]23)C[C@@H](O)C[C@@H]1O [compound 28] | 10^-8 to 10^-7 M | induce differentiation and maturation | rather weakly | moderate | as potent as the known 1α,25-DHCC |
| C=C1/C(=C\C=C2/CCC[C@@]3(C)[C@H]2CC[C@@]32C[C@@H]2CCCC(C)(C)O)C[C@@H](O)C[C@@H]1O [compound 32] | 10^-8 to 10^-7 M | induce differentiation and maturation | rather weakly | high | 3-5 times |
| C=C1/C(=C\C=C2/CCC[C@@]3(C)[C@H]2CC[C@@]32C[C@H]2CCCC(C)(C)O)C[C@@H](O)C[C@@H]1O [compound 36] | 10^-8 to 10^-7 M | induce differentiation and maturation | rather weakly | weak | about 10 times |

— US5929056A, “Vitamin D compounds and method of preparing these compounds” (Duphar International Research B.V., priority 1994, dated 1999)
